{"source": "paper PMC5437278", "about": "“Targeting the deubiquitinase STAMBP inhibits NALP7 inflammasome activity” (Nature Communications, 2017)", "biological_target": "T1, STAMBP (purified, recombinant) (Homo sapiens, UniProt O95630)", "T1 construct": "commercial purified recombinant STAMBP (R&D Systems E-548B)", "T1 sequence (O95630 1-424)": "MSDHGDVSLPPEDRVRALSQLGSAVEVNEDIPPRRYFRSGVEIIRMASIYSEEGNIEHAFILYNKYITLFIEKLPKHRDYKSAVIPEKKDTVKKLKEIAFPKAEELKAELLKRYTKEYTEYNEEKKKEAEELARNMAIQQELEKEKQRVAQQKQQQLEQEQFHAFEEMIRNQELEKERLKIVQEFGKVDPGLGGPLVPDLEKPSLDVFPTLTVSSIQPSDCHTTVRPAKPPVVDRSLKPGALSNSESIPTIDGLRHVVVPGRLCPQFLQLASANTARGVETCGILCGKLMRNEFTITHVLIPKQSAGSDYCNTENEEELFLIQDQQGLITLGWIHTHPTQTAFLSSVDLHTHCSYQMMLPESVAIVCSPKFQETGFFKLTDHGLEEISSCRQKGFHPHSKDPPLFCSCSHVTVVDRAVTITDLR", "assay": "in vitro DUB assay, cleavage of K63-linked di-ubiquitin to mono-Ub, immunoblot", "format": "biochemical", "conditions": "200 nM K63-linked di-Ub, 25 nM STAMBP, pH 7.5, 37 °C, 2 h; competitive"}
{"substance": "BC-1471", "values": [{"measurement": "IC50", "value": 330, "unit": "nM"}]}
